# Data: PMC7580722, “Design of new disubstituted imidazo[1,2-b]pyridazine derivatives as selective Haspin inhibitors. Synthesis, binding mode and anticancer biological evaluation” (Journal of Enzyme Inhibition and Medicinal Chemistry, 2020)
# pEC50: −log10 of the molar value.
# Tested on: HBL100
# Experiment: Cell viability, monolayer (2D), MTS assay
# Format: cell-based
# Details: Homo sapiens, HBL-100, 48 h
smiles,measurement,value
c1cc2[nH]ncc2cc1-c1cnc2ccc(OC[C@@H]3CNCCO3)nn12 [Compound 21],pEC50,< 5.00
